According to patent publication US10736906B2, “Method to enhance tissue regeneration” (CHILDREN'S MEDICAL CENTER CORPORATION, priority 2006, dated 2020):

Key:
[1] = tested on: hematopoietic stem cells (HSCs); assay: HSC formation in zebrafish embryos (runx1, c-myb expression), with heat-shock inducible wnt modulators; assay type: in vivo
Procedure: The functional consequences of the PGE2/wnt interaction in HSC formation during embryonic development were analyzed by examining the expression of the HSC markers runx1 and c-myb. Heat shock induction of a canonical wnt ligand, wnt8, at ten somites led to enhanced HSC formation at 36 hours post fertilization (hpf; 47/54). When wnt8 induction was followed by exposure to indomethacin (10 μM, 16-36 hpf) HSC formation was reduced to or below wild-type levels ( 43/46).
Inducible negative regulators of wnt activity were used in combination with dmPGE2 treatment to functionally localize the interaction between the PG and wnt pathways. Dkk1 antagonizes the wnt pathway at the level of membrane binding and the initiation of the wnt signaling cascade. Dkk induction in hs:dkk1 transgenic embryos inhibited HSC development ( 34/49). Exposure to exogenous dmPGE2 rescued the dkk1-mediated effect on HSC formation ( 28/51, 10 μM, 16-36 hpf). Axin is a central component of the β-catenin destruction complex and thus a negative regulator of the wnt signaling cascade in the cytosolic compartment. […] Similarly, a dominant-negative form of the β-catenin transcriptional co-activator TCF abolished HSC formation ( 60/62), and no rescue was affected via dmPGE2 exposure.
The wnt pathway can actively enhance HSC proliferation through signaling from the HSC niche as well as within HSCs themselves. PGE2 regulates HSC formation at the level of the vascular niche as well as within the HSCs. North et al., 2007. In order to identify transcriptional programs regulated by the wnt signaling pathway, genes involved in HSC development were analyzed by qPCR.
The functional interaction of signaling processes in the zebrafish, down stream from PG, was explored by increasing camp production using forskolin and inhibiting PKA with H89. […] Furthermore, the rescue of dkk effects by dmPGE2 was eliminated by H89.
Heat shock activation/repression of wnt signaling: Embryonic heat-shock experiments were conducted at 38° C. for a duration of 20 minutes unless otherwise noted. Genotype was determined by the presence of GFP fluorescence at three hours post heat-induction, non-fluorescence (wild-type) siblings were used as controls.
(§1) In situ hybridization: Paraformaldehyde (PFA)-fixed embryos were processed for in situ hybridization using standard zebrafish protocols such as those found on the internet at, for example, ZFIN: The Zebrafish Model Organism Database (hosted by the Univ. Oregon, Eugene, Oreg.). The following RNA probes were used to detect alterations in endodermal and liver development: GFP, LFABP, sterol carrier protein, transferrin, foxA3, insulin, trypsin, and IFABP. Changes in expression compared to wild-type controls are reported as the # altered/# scored per genotype; a minimum of three independent experiments were conducted per analysis.

liver growth [2] = assay: liver growth, early experimental evidence; assay type: in vivo
wnt activity = wnt activity in TOP:dGFP wnt reporter zebrafish embryos (in situ hybridization and qPCR for GFP); assay type: in vivo; details: for wnt activity in the developing brain, liver and gut: developing zebrafish, TOP:dGFP
Text: An embodiment of the present invention provides for manipulation of the genetic interaction between PGE2 and wnt/β-catenin signaling, which regulates developmental specification of stem cells and regeneration. Briefly, prostaglandin (PG) E2 is required for the formation and function of hematopoietic stem cells (HSCs) in vivo, yet its mechanism of action in these cells is not completely understood.
The following RNA probes were used to detect alterations in endodermal and liver development: GFP, LFABP, sterol carrier protein, transferrin, foxA3, insulin, trypsin, and IFABP. Changes in expression compared to wild-type controls are reported as the # altered/# scored per genotype; a minimum of three independent experiments were conducted per analysis.

[3] = tested on: stem and progenitor cell population; assay: hematopoietic recovery following irradiation in the adult zebrafish (kidney marrow); assay type: in vivo; details: zebrafish
Procedure: It has been hypothesized that wnt activation regulates HSC self-renewal and repopulation. Wnt activation is also thought to be involved in carcinogenesis, however, making the concept of direct enhancement of wnt signaling problematic. Whether regulation of wnt activity by prostaglandin can effectively modulate HSC homeostasis in the adult, was determined by observing hematopoietic recovery following irradiation in the zebrafish. […] APCMin/+ mice have elevated β-catenin levels due to loss of APC function in the destruction complex.

[4] = tested on: endodermal and hepatic progenitor cells; assay: endodermal progenitors (foxA3) and liver size (lfabp) in zebrafish embryos, in situ hybridization; assay type: in vivo
Text: To determine whether the interaction of PGE2 and wnt/β-catenin signaling is a conserved regulator of stem and progenitor cell populations in other tissues, endodermal and hepatic progenitor cells were examined during zebrafish development. […] ( 51/56), as detected by expression of liver fatty acid binding protein (lfabp). […] This finding is supported by the detection of various components of PGE2 signaling in foxA3 positive cells.
The APC mutant zebrafish to model constitutive activation of the wnt signaling pathway, was used to characterize the effects of the wnt/PG interaction in foxA3+ endodermal progenitors at 48 hpf. APC+/− embryos have enhanced foxA3 expression and an increased liver bud ( 88/93) as well as increased liver size ( 68/75) compared to wild-type siblings. […] Both cyclinD1 and cmyc were co-regulated by wnt and prostaglandin during development which may indicate that PGE2 exerts its effects on stem cells through enhanced cell cycling and proliferation.
as §1

adult zebrafish liver = assay: liver regeneration and wound healing after 1/3 partial hepatectomy in adult zebrafish; assay type: in vivo; details: for wound healing at the incision site: skin wounds following partial hepatectomy
Text: Following ⅓ partial hepatectomy, the zebrafish liver regenerates within five days to seven days.
As many molecular pathways controlling embryonic development mediate tissue homeostasis in the adult, the effects of prostaglandin signaling during liver regeneration were examined. […] Fish were revived and allowed to heal in fish water.
To test the requirement of functional prostaglandin signaling during regeneration, fish were exposed to the dual-specific cox inhibitor, indomethacin, from hour 6 to hour 18 following partial hepatectomy.
Liver Resection: Folling administration of tricaine anesthetic, ⅓ partial hepaectomy of the adult zebrafish liver was performed under brightfield imaging on a dissection microscope. An incision was made using microdissection scissors posterior to the heart on the left lateral portion of the abdomen.

liver growth [5] = assay: chart of prostaglandin derivatives: relative potency to increase liver growth; details: zebrafish, in vivo
Text: Another embodiment of the present invention provides for compositions and methods that modulate vertebrate tissue growth or regeneration via the prostaglandin signaling pathway. For example, prostaglandin E2 enhances vertebrate tissue regeneration. A chemical screen in zebrafish identified the prostaglandin signaling pathway as a potent modifier of liver growth during embryonic development. […] As many molecular pathways controlling embryonic development mediate tissue homeostasis in the adult, the effects of prostaglandin signaling during liver regeneration were examined. […] Fish were revived and allowed to heal in fish water.

[6] = tested on: cKit+Sca1+ Lineage- (KSL) bone marrow cells; assay: murine transplantation assay with purified HSCs, CFU-S12; assay type: in vivo, mice
Procedure: To assess whether prostaglandin levels regulate wnt activity in HSCs, murine transplantation assays were performed utilizing purified HSCs. FACS-isolated cKit+Sca1+ Lineage—(KSL) bone marrow cells were transplanted into lethally irradiated recipients.

Compound: O=S(=O)(NCCNC/C=C/c1ccc(Br)cc1)c1cccc2cnccc12 [H89]
- effect on increased HSC formation induced by dmPGE2 ([1]; PKA inhibition): reduced the increased HSC formation
- effect on the rescue of dkk effects by dmPGE2 ([1]; PKA inhibition): eliminated

Compound: CC1=C(/C=C/C(C)=C/C=C/C(C)=C/C=C/C=C(C)/C=C/C=C(C)/C=C/C2=C(C)CCCC2(C)C)C(C)(C)CCC1 [Beta-Carotene]
- effect on liver growth (liver growth [2]): inhibited

Compound: CCCCC(C)(C)[C@H](O)/C=C/[C@H]1[C@H](O)CC(=O)[C@@H]1C/C=C\CCCC(=O)O [dmPGE2, dimethyl-prostaglandin E2]
- wnt-active cells in the aorta-gonad mesonephros (AGM) (wnt activity; 10 μM, vs. 3±1.8 cells): 12±3.4 cells
- wnt activity in the developing brain, liver and gut (wnt activity): enhance wnt signaling
- induction of wnt activity, qPCR for GFP (wnt activity; whole embryo extracts): 2 fold
- rescue of axin-mediated inhibition of HSC formation ([1]; axin induced at ten somites): could not be overcome
- rescue of dominant-negative TCF-mediated loss of HSC formation ([1]; dnTCF induction): no rescue
- rescue of dkk1-mediated effect on HSC formation (# altered/# scored) ([1]; hs:dkk1 embryos, 10 μM, 16-36 hpf): 28/51
- effects of wnt8/dkk1 induction on runx1, cmyb, flk1, ephB2 expression (qPCR) ([1]; indomethacin added to wnt8, dmPGE2 added to dkk1): could be modified
- kidney marrow repopulation following injury [3]: enhance kidney marrow repopulation
- enhanced endodermal progenitors (# altered/# scored) ([4]; APC+/− embryos): 47/54
- enhanced liver size (# altered/# scored) ([4]; APC+/− embryos): 75/81
- rescue of liver growth inhibited by morpholino knock-down of cox1 or cox2 ([4]; exogenous dmPGE2): rescued fully
- expanded foxA3 population with increased liver anlage (# altered/# scored) ([4]; wild-type embryos): 75/83
- increased liver size (# altered/# scored) ([4]; wild-type embryos): 88/92
- liver size / liver development compared to controls ([4]; zebrafish embryos, by 72 hours post-fertilization): enhanced liver development
- liver vascularity (adult zebrafish liver; compared to untreated fish): increases in liver vascularity
- liver regrowth compared to controls (adult zebrafish liver; exposure following resection (indomethacin hour 6 to 18; day 1 and day 3)): enhanced liver regrowth
- complete regeneration of the liver (adult zebrafish liver; indomethacin: by day 5 post-resection): faster complete regeneration
- wound healing at the incision site (adult zebrafish liver): more rapid wound healing

Compound: CCCCC[C@H](O)/C=C/[C@H]1[C@H](O)CC(=O)[C@@H]1C/C=C/CCCC(=O)O (relative stereo) [5-trans PGE2]
- toxicity noted in liver growth chart (liver growth [5]): toxic

Compound: Vitamin D
- effect on liver growth (liver growth [2]): enhanced

Compound: O=C1Nc2cc(Br)ccc2/C1=C1/Nc2ccccc2/C1=N\O [BIO]
- CFU-S12 increase ([6]; BIO 0.05 mg/kg, p=0.03): 2 fold
- early spleen colony formation following bone marrow transplantation ([6]; FIG. 11 legend): enhances early spleen colony formation

Compound: CC1=C(/C=C/C(C)=C/C=C/C(C)=C/C(=O)O)C(C)(C)CCC1 [All-trans retinoic acid]
- effect on liver growth (liver growth [2]): enhanced

Compound: BMS189453
- effect on liver growth (liver growth [2]): inhibited

Compound: C[C@]12CC[C@@H]3c4ccc(O)cc4CC[C@H]3[C@@H]1CC[C@@H]2O [3-estradiol]
- effect on liver growth (liver growth [2]): inhibited

Compound: CC1=C(/C=C/C(C)=C/C=C/C(C)=C/CO)C(C)(C)CCC1 [Retinol]
- effect on liver growth (liver growth [2]): enhanced

Compound: CCCCC[C@H](O)/C=C/[C@H]1[C@H](O)CC(=O)[C@@H]1C/C=C\CCCC(=O)O [PGE2, Prostaglandin E2]
- wnt activity in the developing brain, liver and gut (wnt activity): increased wnt activity
- wound healing at the incision site (adult zebrafish liver): heal faster and to a greater extent
